# Measurements reported in paper PMC3407089, “Influence of GABAA Receptor α Subunit Isoforms on the Benzodiazepine Binding Site” (PLoS ONE, 2012).
# Where two headings read alike, the source gives them in different places.
# Assays:
# [1] = target: α1S205Cβ2γ2 GABAA receptor (Rattus norvegicus, UniProt P18508+P62813, S232C); assay: Covalent reaction of 3-NCS at the binding level (residual radioligand binding, HEK293 membranes); conditions: 3-NCS 30 min on ice, washed; residual [^3H]Ro15–1788 binding
# Chain of α1S205Cβ2γ2 GABAA receptor (P62813 28-455 S232C): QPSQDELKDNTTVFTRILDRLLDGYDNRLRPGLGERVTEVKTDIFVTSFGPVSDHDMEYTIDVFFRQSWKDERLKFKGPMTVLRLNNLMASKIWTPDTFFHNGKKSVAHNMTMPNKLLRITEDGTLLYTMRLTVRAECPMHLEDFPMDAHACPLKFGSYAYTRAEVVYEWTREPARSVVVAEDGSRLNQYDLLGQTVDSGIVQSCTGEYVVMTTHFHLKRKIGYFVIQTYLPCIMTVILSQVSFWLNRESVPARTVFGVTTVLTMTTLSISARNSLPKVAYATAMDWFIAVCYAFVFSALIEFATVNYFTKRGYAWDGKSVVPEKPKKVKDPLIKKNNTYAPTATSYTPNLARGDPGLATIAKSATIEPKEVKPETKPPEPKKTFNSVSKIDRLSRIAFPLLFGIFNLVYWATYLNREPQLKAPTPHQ
# Chain of α1S205Cβ2γ2 GABAA receptor (P18508 39-466): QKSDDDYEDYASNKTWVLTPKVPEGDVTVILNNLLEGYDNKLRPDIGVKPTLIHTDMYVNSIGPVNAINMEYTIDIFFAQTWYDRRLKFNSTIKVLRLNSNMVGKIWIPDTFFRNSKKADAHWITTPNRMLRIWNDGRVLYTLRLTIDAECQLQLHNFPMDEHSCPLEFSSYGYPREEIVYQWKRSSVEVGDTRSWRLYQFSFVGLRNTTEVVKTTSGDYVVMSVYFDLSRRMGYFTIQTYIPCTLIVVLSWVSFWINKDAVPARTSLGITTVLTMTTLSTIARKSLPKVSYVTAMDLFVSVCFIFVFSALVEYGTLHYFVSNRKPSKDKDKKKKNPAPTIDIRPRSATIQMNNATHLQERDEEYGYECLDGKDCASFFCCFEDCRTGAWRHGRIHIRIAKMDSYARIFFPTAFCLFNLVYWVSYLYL
# Chain of α1S205Cβ2γ2 GABAA receptor (P63138 26-474 partner): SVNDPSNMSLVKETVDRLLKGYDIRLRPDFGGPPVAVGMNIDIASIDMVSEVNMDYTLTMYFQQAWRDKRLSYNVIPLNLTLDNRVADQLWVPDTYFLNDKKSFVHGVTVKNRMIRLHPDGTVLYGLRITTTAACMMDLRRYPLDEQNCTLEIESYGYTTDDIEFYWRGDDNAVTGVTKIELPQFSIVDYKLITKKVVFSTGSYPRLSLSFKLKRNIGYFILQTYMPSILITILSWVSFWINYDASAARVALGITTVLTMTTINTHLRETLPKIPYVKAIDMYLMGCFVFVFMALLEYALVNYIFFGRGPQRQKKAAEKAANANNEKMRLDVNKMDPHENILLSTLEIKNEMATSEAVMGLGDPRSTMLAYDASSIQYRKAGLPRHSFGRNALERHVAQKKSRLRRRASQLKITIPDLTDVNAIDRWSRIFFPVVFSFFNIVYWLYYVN
# Protocol: (§1) cDNAs coding for the αx (x = 1, 2, 3, 6), β2, and γ2S subunits DNA (20 µg : 20 µg : 20 µg) per 9 cm diameter dish were transfected in human embryonic kidney (HEK) 293 cells (American Type of Culture Collection, MD, USA, CRL 1573) using the calcium phosphate precipitation technique. For α5 containing receptors β2 was replaced by β1. […] Culturing of cells and membrane preparation were done as described before.
# (§2) As detailed in previous work, [30], [33] this procedure included three steps: incubation of membranes expressing recombinant wild type or mutant receptors with the reactive agent followed by extensive washing of the membranes in order to remove non-reacted compound and a radioactive ligand binding assay to determine residual binding. No covalent reaction would result in 100% residual binding, and 100% covalent reaction would result in 0% residual binding.
# (§3) Briefly, the membranes were re-suspended in phosphate buffer (100 mM KCl, 10 mM KH2PO4, 0.1 mM EDTA, pH 7.4) using a Glass/Teflon homogenizer. 0.1–1.0 mg/mL of protein were incubated in a total volume of 360 µL with either 10 µM (determination of degree of covalent reaction) or several concentrations of 3-NCS for 30 min on ice. Membranes were collected with rapid filtration on a round 7 mm diameter glass fiber filter (GF/C; Whatman) that was placed on a round 24 mm diameter glass fiber filter (GF/C; Whatman), both pre-washed with phosphate buffer. The reaction of 3-NCS with the receptor was stopped by washing of the filters six times with 5 mL phosphate buffer, each. The small filters with the deposited membranes were incubated in 0.12 mL phosphate buffer containing 5 nM [^3H]Ro15–1788. After 30 min the 7 mm filter was placed on a 24 mm filter and washed six times with 5 mL phosphate buffer each. Radioactivity was determined by liquid scintillation counting. Non-specific binding was determined in the presence of 100 µM Ro 15–1788. In control experiments, washing efficiency was estimated by placing radioactivity on the small filter. More than 99.95% of the radioactivity was removed (not shown).
# (§4) Concentration response curves for 3-NCS were fitted with the equation C(c) = Cmax/(1+(EC50/c)), where c is the concentration of 3-NCS, EC50 the concentration of 3-NCS where half maximal covalent reaction was observed, Cmax is the maximal extent of the covalent reaction and C the measured extent of the covalent reaction.
# [2] = target: α1T206Cβ2γ2 GABAA receptor (Rattus norvegicus, UniProt P18508+P62813, T233C); assay: as above; conditions: 3-NCS 30 min on ice, washed; residual [^3H]Ro15–1788 binding
# Chain of α1T206Cβ2γ2 GABAA receptor (P62813 28-455 T233C): as the sequence (P62813 28-455 S232C) above, with C205S, T206C counted along it
# Chain of α1T206Cβ2γ2 GABAA receptor (P18508 39-466): as the sequence (P18508 39-466) above
# Chain of α1T206Cβ2γ2 GABAA receptor (P63138 26-474 partner): as the sequence (P63138 26-474 partner) above
# Protocol: as §1, §2, §3, §4
# [3] = target: α2S204Cβ2γ2 GABAA receptor (Rattus norvegicus, UniProt P18508+P23576, S232C); assay: as above
# Chain of α2S204Cβ2γ2 GABAA receptor (P23576 29-451 S232C): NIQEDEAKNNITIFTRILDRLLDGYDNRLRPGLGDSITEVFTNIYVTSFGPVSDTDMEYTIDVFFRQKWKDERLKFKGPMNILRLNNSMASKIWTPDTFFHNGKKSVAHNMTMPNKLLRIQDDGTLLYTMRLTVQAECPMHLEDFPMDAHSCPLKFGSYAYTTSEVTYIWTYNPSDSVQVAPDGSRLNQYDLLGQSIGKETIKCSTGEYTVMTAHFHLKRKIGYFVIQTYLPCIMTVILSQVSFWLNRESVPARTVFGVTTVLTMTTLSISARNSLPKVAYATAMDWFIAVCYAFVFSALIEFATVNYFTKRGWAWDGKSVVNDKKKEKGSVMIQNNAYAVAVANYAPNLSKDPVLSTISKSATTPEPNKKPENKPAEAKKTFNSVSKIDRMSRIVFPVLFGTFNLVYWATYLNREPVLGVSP
# Chain of α2S204Cβ2γ2 GABAA receptor (P18508 39-466): as the sequence (P18508 39-466) above
# Chain of α2S204Cβ2γ2 GABAA receptor (P63138 26-474 partner): as the sequence (P63138 26-474 partner) above
# Protocol: as §1, §2, §3, §4
# [4] = target: α2S205Cβ2γ2 GABAA receptor (Rattus norvegicus, UniProt P18508+P23576, S233C); assay: as above
# Chain of α2S205Cβ2γ2 GABAA receptor (P23576 29-451 S233C): as the sequence (P23576 29-451 S232C) above, with C204S, S205C counted along it
# Chain of α2S205Cβ2γ2 GABAA receptor (P18508 39-466, stated change not applied): as the sequence (P18508 39-466) above
# Chain of α2S205Cβ2γ2 GABAA receptor (P63138 26-474 partner): as the sequence (P63138 26-474 partner) above
# Protocol: as §1, §2, §3, §4
# [5] = target: α2T206Cβ2γ2 GABAA receptor (Rattus norvegicus, UniProt P18508+P23576, T234C); assay: as above
# Chain of α2T206Cβ2γ2 GABAA receptor (P23576 29-451 T234C): as the sequence (P23576 29-451 S232C) above, with C204S, T206C counted along it
# Chain of α2T206Cβ2γ2 GABAA receptor (P18508 39-466): as the sequence (P18508 39-466) above
# Chain of α2T206Cβ2γ2 GABAA receptor (P63138 26-474 partner): as the sequence (P63138 26-474 partner) above
# Protocol: as §1, §2, §3, §4
# [6] = target: α5S209Cβ1γ2 GABAA receptor (Rattus norvegicus, UniProt P18508+P19969, S240C); assay: as above
# Chain of α5S209Cβ1γ2 GABAA receptor (P19969 26-464 S240C): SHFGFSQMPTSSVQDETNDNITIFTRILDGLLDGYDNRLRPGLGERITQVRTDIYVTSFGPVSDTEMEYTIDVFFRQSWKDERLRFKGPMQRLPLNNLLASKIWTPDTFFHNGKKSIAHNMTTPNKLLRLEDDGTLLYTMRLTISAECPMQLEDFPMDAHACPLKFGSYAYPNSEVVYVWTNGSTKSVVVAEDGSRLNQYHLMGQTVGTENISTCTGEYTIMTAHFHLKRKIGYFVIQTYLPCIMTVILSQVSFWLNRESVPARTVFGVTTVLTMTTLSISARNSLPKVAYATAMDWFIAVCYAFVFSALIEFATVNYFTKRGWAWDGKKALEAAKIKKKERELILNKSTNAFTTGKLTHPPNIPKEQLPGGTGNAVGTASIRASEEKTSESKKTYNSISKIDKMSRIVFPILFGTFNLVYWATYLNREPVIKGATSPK
# Chain of α5S209Cβ1γ2 GABAA receptor (P18508 39-466, stated change not applied): as the sequence (P18508 39-466) above
# Chain of α5S209Cβ1γ2 GABAA receptor (P15431 26-474 partner): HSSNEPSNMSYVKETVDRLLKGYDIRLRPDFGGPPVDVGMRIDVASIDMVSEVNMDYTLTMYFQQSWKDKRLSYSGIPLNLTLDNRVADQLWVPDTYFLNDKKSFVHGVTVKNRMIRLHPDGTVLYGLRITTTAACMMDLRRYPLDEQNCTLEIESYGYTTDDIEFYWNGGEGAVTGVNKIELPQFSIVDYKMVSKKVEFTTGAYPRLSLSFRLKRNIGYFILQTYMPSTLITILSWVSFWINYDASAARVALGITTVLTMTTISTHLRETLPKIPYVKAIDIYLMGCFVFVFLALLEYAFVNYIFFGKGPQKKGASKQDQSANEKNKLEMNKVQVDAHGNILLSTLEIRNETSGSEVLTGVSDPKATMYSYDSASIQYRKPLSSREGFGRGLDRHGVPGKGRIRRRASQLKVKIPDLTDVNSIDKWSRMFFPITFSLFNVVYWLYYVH
# Protocol: as §1, §2, §3, §4
# [7] = target: α5T210Cβ1γ2 GABAA receptor (Rattus norvegicus, UniProt P18508+P19969, T241C); assay: as above
# Chain of α5T210Cβ1γ2 GABAA receptor (P19969 26-464 T241C): as the sequence (P19969 26-464 S240C) above, with C215S, T216C counted along it
# Chain of α5T210Cβ1γ2 GABAA receptor (P18508 39-466): as the sequence (P18508 39-466) above
# Chain of α5T210Cβ1γ2 GABAA receptor (P15431 26-474 partner): as the sequence (P15431 26-474 partner) above
# Protocol: as §1, §2, §3, §4
# [8] = target: α1S204Cβ2γ2 GABAA receptor; assay: as above; design: key: n.r.: no covalent reaction; conditions: 3-NCS 30 min on ice, washed; residual [^3H]Ro15–1788 binding
# Protocol: as §1, §2
# as §3, with “The reaction of 3-NCS with the receptor was stopped by washing of the filters six times with 5 mL phosphate buffer, each. The small filters with the deposited membranes were incubated in 0.12 mL phosphate buffer containing 5 nM [^3H]Ro15–1788. After 30 min the 7 mm filter was placed on a 24 mm filter and washed six times with 5 mL phosphate buffer each.” left out
# as §4
# [9] = target: α6N204Cβ2γ2 GABAA receptor; assay: as above; design: key: n.r.: no covalent reaction; conditions: 3-NCS 30 min on ice, washed; [^3H]15–4513 as radioactive ligand
# Protocol: as §1, §2
# as §3, with “The reaction of 3-NCS with the receptor was stopped by washing of the filters six times with 5 mL phosphate buffer, each. The small filters with the deposited membranes were incubated in 0.12 mL phosphate buffer containing 5 nM [^3H]Ro15–1788. After 30 min the 7 mm filter was placed on a 24 mm filter and washed six times with 5 mL phosphate buffer each.” left out
# as §4
# [10] = target: α6S203Cβ2γ2 GABAA receptor; assay: as above; design: key: n.r.: no covalent reaction; conditions: 3-NCS 30 min on ice, washed; [^3H]15–4513 as radioactive ligand
# Protocol: as §1, §2
# as §3, with “The reaction of 3-NCS with the receptor was stopped by washing of the filters six times with 5 mL phosphate buffer, each. The small filters with the deposited membranes were incubated in 0.12 mL phosphate buffer containing 5 nM [^3H]Ro15–1788. After 30 min the 7 mm filter was placed on a 24 mm filter and washed six times with 5 mL phosphate buffer each.” left out
# as §4
# mutated GABAA receptors = assay: Time course of covalent reaction at the binding level (preliminary experiments); conditions: 10 µM and 1 µM 3-NCS, not shown
# Protocol: as §2
# as §3, with “The reaction of 3-NCS with the receptor was stopped by washing of the filters six times with 5 mL phosphate buffer, each. The small filters with the deposited membranes were incubated in 0.12 mL phosphate buffer containing 5 nM [^3H]Ro15–1788. After 30 min the 7 mm filter was placed on a 24 mm filter and washed six times with 5 mL phosphate buffer each.” left out
# [11] = test system: α1S204Cβ2γ2 GABAA receptor; design: method as in PMID 19804380; conditions: 10 µM 3-NCS; cited from earlier work
# [12] = target: wild-type α1β2γ2 receptors; design: method as in PMID 19804380; conditions: cited from earlier work
# α5β1γ2 receptors = α5β1γ2 receptors (Rattus norvegicus, UniProt P18508+P19969); assay: biochemical
# Chain of α5β1γ2 receptors (P19969 32-464 limits assumed): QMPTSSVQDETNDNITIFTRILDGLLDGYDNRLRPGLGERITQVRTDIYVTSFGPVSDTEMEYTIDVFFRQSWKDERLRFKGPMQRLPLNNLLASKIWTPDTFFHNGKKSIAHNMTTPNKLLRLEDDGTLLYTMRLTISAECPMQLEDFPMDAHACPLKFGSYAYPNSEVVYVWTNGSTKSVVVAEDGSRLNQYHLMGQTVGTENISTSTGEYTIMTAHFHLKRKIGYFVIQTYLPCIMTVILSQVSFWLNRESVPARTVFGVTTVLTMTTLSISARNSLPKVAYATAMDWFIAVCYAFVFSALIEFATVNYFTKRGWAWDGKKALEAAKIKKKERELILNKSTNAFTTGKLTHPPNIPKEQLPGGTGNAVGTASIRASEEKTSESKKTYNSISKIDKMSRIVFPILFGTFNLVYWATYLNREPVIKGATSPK
# Chain of α5β1γ2 receptors (P15431 26-474 partner): as the sequence (P15431 26-474 partner) above
# Chain of α5β1γ2 receptors (P18508 39-466): as the sequence (P18508 39-466) above
# Protocol: Culturing of cells and membrane preparation were done as described before [30].
# For this affinity estimate, membranes were re-suspended in phosphate buffer using a Teflon homogenizer. […] The final protein concentration was 0.1–1 mg of protein/ml. […] Membranes were collected by rapid vacuum filtration on GF/C filters. After three washing steps (3 sec each) with 5 ml of phosphate buffer, the filter-retained radioactivity was determined by liquid scintillation counting.
# [13] = 3-NCS 30 min on ice, washed, residual [^3H]Ro15–1788 binding
# [14] = 0.5 h, 10 µM 3-NCS, mutation homologous to α1S205, n = 3, read-out: Extent of covalent reaction (100% minus % residual binding)
# [15] = 0.5 h, 10 µM 3-NCS, mutation homologous to α1T206, n = 3, read-out: Extent of covalent reaction (100% minus % residual binding)
smiles,measurement,setting,value
CN1C(=O)C(N=C=S)N=C(c2ccccc2)c2cc([N+](=O)[O-])ccc21 (centres unmarked) [3-NCS],EC50,[1],0.63 ± 0.18 µM
same,EC50,[2],0.082 ± 0.028 µM
same,EC50,[3]; [13],3.2 ± 2.3 µM
same,inhibition at 10 µM,"[3]; 0.5 h, 10 µM 3-NCS, mutation homologous to α1S204, n = 3, read-out: Extent of covalent reaction (100% minus % residual binding)",52%
same,EC50,[4]; [13],6.6 ± 5.4 µM
same,inhibition at 10 µM,[4]; [14],39%
same,EC50,[5]; [13],0.19 ± 0.056 µM
same,inhibition at 10 µM,[5]; [15],54%
same,EC50,[6]; [13],4.1 ± 2.2 µM
same,inhibition at 10 µM,[6]; [14],54%
same,EC50,[7]; [13],0.45 ± 0.15 µM
same,inhibition at 10 µM,[7]; [15],73%
same,EC50 of the covalent reaction,[8],n.r.
same,EC50 of the covalent reaction,[9],n.r. ^a
same,EC50 of the covalent reaction,[10],n.r. ^a
same,Time to maximum of covalent reaction,mutated GABAA receptors,≤ 15 s
same,Covalent reaction with 3-NCS (in words),[11],did not covalently react
same,Ki,"[12]; radioligand [^3H]Ro15–1788, read-out: Ki, displacement of [^3H]Ro15–1788",0.34 ± 0.016 µM
same,Ki,"[12]; radioligand [^3H]flunitrazepam, read-out: Ki, displacement of [^3H]flunitrazepam",0.24 ± 0.055 µM
same,Ki,α5β1γ2 receptors,9.84 ± 1.48 µM
